# Assay results reported in patent publication US20150105252A1, “SUBSTITUTED PYRAZOLES AS HERBICIDES” (E I DU PONT DE NEMOURS AND COMPANY, priority 2013, published 2015).
# Key:
# soybean = assay: Test C postemergence; type: in vivo, Glycine max; conditions: postemergence; for Plant response rating, Soybean: 250 g ai/ha, scale 0 to 100 (0 no effect, 100 complete control); for Soybean plant response rating: 125 g ai/ha, scale 0 to 100, 0 no effect, 100 complete control
# Outline: (§1)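 Postemergence values come from plants sprayed at the 1- to 4-leaf stage (2–18 cm) in peat moss–vermiculite medium; preemergence values from seeds treated in a loam–sand blend. Both evaluated visually against controls after 13–15 greenhouse days, scale 0–100.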
# wheat [1] = assay: Test C preemergence; type: in vivo, Triticum aestivum; conditions: preemergence; for Plant response rating, Wheat: 125 g ai/ha, scale 0 to 100, 0 = no effect, 100 = complete control
# Outline: as §1
# corn = assay: Test C postemergence; type: in vivo, Zea mays; conditions: for Plant response rating (scale of 0 to 100 where 0 is no effect and 100 is complete control), Corn: Postemergence, 31 g ai/ha, visually evaluated after 13 to 15 days; for Corn plant response rating / Plant response rating, Corn: postemergence; for Corn plant response rating: 62 g ai/ha, scale 0 to 100
# Outline: as §1
# velvetleaf = assay: Test A preemergence; type: in vivo, Abutilon theophrasti; conditions: preemergence; for Velvetleaf plant response rating (0 to 100 scale): 125 g ai/ha, visual injury approx. 10 days after treatment; for Velvetleaf plant response rating: 500 g ai/ha, visual injury after approx. 10 days, 0 to 100 scale (0 no effect, 100 complete control)
# Outline: (§2)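 Greenhouse test in loam soil/sand blend; compounds formulated in non-phytotoxic solvent with surfactant, applied as preemergence directed soil spray or postemergence to plants 2–10 cm tall at one- to two-leaf stage. Injury rated visually versus untreated controls after approximately 10 days on a 0 (no effect) to 100 (complete control) scale.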
# pigweed [2] = assay: Test A preemergence; type: in vivo, Amaranthus retroflexus; conditions: preemergence; for Pigweed plant response rating (0 to 100 scale): 125 g ai/ha, visual injury approx. 10 days after treatment; for Pigweed plant response rating: 500 g ai/ha, visual injury after approx. 10 days, 0 to 100 scale (0 no effect, 100 complete control)
# Outline: as §2
# oilseed rape = assay: Test C preemergence; type: in vivo, Brassica napus; conditions: preemergence; for Plant response rating, Oilseed Rape: 125 g ai/ha, scale 0 to 100, 0 = no effect, 100 = complete control
# Outline: as §1
# galium = assay: Test C preemergence; type: in vivo, Galium aparine; conditions: preemergence; for Plant response rating, Galium: 125 g ai/ha, scale 0 to 100, 0 = no effect, 100 = complete control
# Outline: as §1
# johnsongrass = assay: Test C postemergence; type: in vivo, Sorghum halepense; conditions: for Plant response rating (scale of 0 to 100 where 0 is no effect and 100 is complete control), Johnsongrass: Postemergence, 31 g ai/ha, visually evaluated after 13 to 15 days; for Johnsongrass plant response rating / Plant response rating, Johnsongrass: postemergence; for Johnsongrass plant response rating: 62 g ai/ha, scale 0 to 100
# Outline: as §1
# wheat [3] = assay: Test C postemergence; type: in vivo, Triticum aestivum; conditions: postemergence, 250 g ai/ha; scale 0 to 100 (0 no effect, 100 complete control)
# Outline: as §1
# ragweed = assay: Test C postemergence; type: in vivo, Ambrosia elation; conditions: postemergence
# Outline: as §1
# chickweed = assay: Test C postemergence; type: in vivo, Stellaria media; conditions: for Plant response rating (scale of 0 to 100 where 0 is no effect and 100 is complete control), Chickweed: Postemergence, 31 g ai/ha, visually evaluated after 13 to 15 days; for Chickweed plant response rating / Plant response rating, Chickweed: postemergence; for Chickweed plant response rating: 62 g ai/ha, scale 0 to 100
# Outline: as §1
# ryegrass, Italian = assay: Test C preemergence; type: in vivo, Lolium multiflorum; conditions: preemergence; for Plant response rating, Ryegrass, Italian: 125 g ai/ha, scale 0 to 100, 0 = no effect, 100 = complete control
# Outline: as §1
# pigweed [4] = assay: Test C postemergence; type: in vivo, Amaranthus retroflexus; conditions: postemergence; for Pigweed plant response rating: 62 g ai/ha, scale 0 to 100
# Outline: as §1
# barnyardgrass = assay: Test B flood; type: in vivo, Echinochloa crus-galli; conditions: 250 g ai/ha, visual rating on 0 to 100 scale (0 no effect, 100 complete control), 13 to 15 days
# Outline: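 Paddy-water application: seedlings at 2-leaf stage, flood depth 3 cm maintained for the test duration. Evaluation after 13–15 days in the greenhouse by eye relative to controls; 0–100 scale.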
# [5] = 31 g ai/ha, visual rating, scale 0 to 100 (0 no effect, 100 complete control), 13 to 15 days
# [6] = 62 g ai/ha, scale 0 to 100 (0 no effect, 100 complete control), 13 to 15 days
# [7] = 250 g ai/ha, scale 0 to 100, 0 is no effect, 100 is complete control
# [8] = 250 g ai/ha, scale 0 to 100 (0 no effect, 100 complete control)
# [9] = 125 g ai/ha, scale 0 to 100, 0 no effect, 100 complete control
structure (smiles),measurement,setting,value
CCc1cc(C(=O)NCC2CC2)nn1Cc1ccnc(C(F)(F)F)c1 [Compound 199],"Plant response rating, Soybean",soybean,95
same,Soybean plant response rating,soybean,75
same,Wheat plant response rating,wheat [1]; [5],60
same,Wheat plant response rating,wheat [1]; [6],85
same,"Plant response rating, Wheat",wheat [1]; 13 to 15 days,90
same,Wheat plant response rating,wheat [1]; [7],90
same,"Plant response rating (scale of 0 to 100 where 0 is no effect and 100 is complete control), Corn",corn,5
same,Corn plant response rating,corn,10
same,"Plant response rating, Corn",corn; [8],65
same,"Plant response rating, Corn",corn; [9],85
same,Velvetleaf plant response rating (0 to 100 scale),velvetleaf,100
same,Velvetleaf plant response rating,velvetleaf,100
same,Pigweed plant response rating (0 to 100 scale),pigweed [2],100
same,Pigweed plant response rating,pigweed [2],100
same,Oilseed Rape plant response rating,oilseed rape; [5],80
same,Oilseed Rape plant response rating,oilseed rape; [6],95
same,"Plant response rating, Oilseed Rape",oilseed rape; 13 to 15 days,100
same,Oilseed Rape plant response rating,oilseed rape; [7],100
same,Galium plant response rating,galium; [5],40
same,Galium plant response rating,galium; [6],100
same,"Plant response rating, Galium",galium; 13 to 15 days,100
same,Galium plant response rating,galium; [7],100
same,"Plant response rating (scale of 0 to 100 where 0 is no effect and 100 is complete control), Johnsongrass",johnsongrass,5
same,Johnsongrass plant response rating,johnsongrass,5
same,"Plant response rating, Johnsongrass",johnsongrass; [8],55
same,"Plant response rating, Johnsongrass",johnsongrass; [9],40
same,"Plant response rating, Wheat",wheat [3],5
same,"Plant response rating, Ragweed",ragweed; [8],75
same,"Plant response rating, Ragweed",ragweed; [9],20
same,"Plant response rating (scale of 0 to 100 where 0 is no effect and 100 is complete control), Chickweed",chickweed,70
same,Chickweed plant response rating,chickweed,60
same,"Plant response rating, Chickweed",chickweed; [8],80
same,"Plant response rating, Chickweed",chickweed; [9],80
same,"Ryegrass, Italian plant response rating","ryegrass, Italian; [5]",40
same,"Ryegrass, Italian plant response rating","ryegrass, Italian; [6]",85
same,"Plant response rating, Ryegrass, Italian","ryegrass, Italian; 13 to 15 days",90
same,"Ryegrass, Italian plant response rating","ryegrass, Italian; [7]",90
same,Pigweed plant response rating,pigweed [4],60
same,"Plant response rating, Pigweed",pigweed [4]; [8],90
same,"Plant response rating, Pigweed",pigweed [4]; [9],75
same,"Plant response rating, Barnyardgrass",barnyardgrass,55
CCc1cc(C(=O)NC2CC2)nn1Cc1ccnc(OCC(F)(F)F)c1 [Compound 200],"Plant response rating, Soybean",soybean,90
same,Soybean plant response rating,soybean,90
same,Wheat plant response rating,wheat [1]; [5],0
same,Wheat plant response rating,wheat [1]; [6],15
same,"Plant response rating, Wheat",wheat [1]; 13 to 15 days,45
same,Wheat plant response rating,wheat [1]; [7],75
same,"Plant response rating (scale of 0 to 100 where 0 is no effect and 100 is complete control), Corn",corn,5
same,Corn plant response rating,corn,5
same,"Plant response rating, Corn",corn; [8],20
same,"Plant response rating, Corn",corn; [9],10
same,Velvetleaf plant response rating (0 to 100 scale),velvetleaf,20
same,Velvetleaf plant response rating,velvetleaf,100
same,Pigweed plant response rating (0 to 100 scale),pigweed [2],100
same,Pigweed plant response rating,pigweed [2],100
same,Oilseed Rape plant response rating,oilseed rape; [5],60
same,Oilseed Rape plant response rating,oilseed rape; [6],95
same,"Plant response rating, Oilseed Rape",oilseed rape; 13 to 15 days,98
same,Oilseed Rape plant response rating,oilseed rape; [7],98
same,Galium plant response rating,galium; [5],85
same,Galium plant response rating,galium; [6],100
same,"Plant response rating, Galium",galium; 13 to 15 days,100
same,Galium plant response rating,galium; [7],100
same,"Plant response rating (scale of 0 to 100 where 0 is no effect and 100 is complete control), Johnsongrass",johnsongrass,10
same,Johnsongrass plant response rating,johnsongrass,10
same,"Plant response rating, Johnsongrass",johnsongrass; [8],20
same,"Plant response rating, Johnsongrass",johnsongrass; [9],10
same,"Plant response rating, Wheat",wheat [3],10
same,"Plant response rating, Ragweed",ragweed; [8],45
same,"Plant response rating, Ragweed",ragweed; [9],45
same,"Plant response rating (scale of 0 to 100 where 0 is no effect and 100 is complete control), Chickweed",chickweed,75
same,Chickweed plant response rating,chickweed,75
same,"Plant response rating, Chickweed",chickweed; [8],90
same,"Plant response rating, Chickweed",chickweed; [9],90
same,"Ryegrass, Italian plant response rating","ryegrass, Italian; [5]",0
same,"Ryegrass, Italian plant response rating","ryegrass, Italian; [6]",90
same,"Plant response rating, Ryegrass, Italian","ryegrass, Italian; 13 to 15 days",90
same,"Ryegrass, Italian plant response rating","ryegrass, Italian; [7]",95
same,Pigweed plant response rating,pigweed [4],60
same,"Plant response rating, Pigweed",pigweed [4]; [8],80
same,"Plant response rating, Pigweed",pigweed [4]; [9],75
same,"Plant response rating, Barnyardgrass",barnyardgrass,25
